Source: ChEMBL document CHEMBL1136020, “Synthesis and biological evaluation of an N10-Psec substituted pyrrolo[2,1-c][1,4]benzodiazepine prodrug” (Bioorg Med Chem Lett, 2002)
Several values for one entry are separate records, joined by “and”; a condition that tells them apart may be missing. Identical values can stand only once. Activity calls are given as the source filed them. No cut-off for these calls is given here.

Tests used:
NCI-H522 [1] = experiment: Concentration required to decrease cell population by 50% on continuous exposure for 48 hr in Lung ([…]) cell line; assay type: functional; conditions: Homo sapiens, NCI-H522, 48 h; read-out: LC50 (the source's name)
A2780 [2] = experiment: Tested for the cytotoxicity in A2780 ovarian cell line; assay type: functional, cell-based; conditions: Homo sapiens
COLO 205 [3] = experiment: Concentration required to restrict cell growth to 50% on continuous exposure for 48 hr in Colon (CoIo 205) cell line; assay type: functional; conditions: Homo sapiens, COLO 205, 48 h
SK-MEL-5 [4] = experiment: Concentration required to restrict cell growth to 50% on continuous exposure for 48 hr in Melanoma (SK-MEL-5) cell line; assay type: functional; conditions: Homo sapiens, SK-MEL-5, 48 h
MDA-MB-435 [5] = experiment: Concentration required to decrease cell population by 50% on continuous exposure for 48 hr in Breast (MDA-MB-435) cell line; assay type: functional; conditions: Homo sapiens, MDA-MB-435, 48 h; read-out: LC50 (the source's name)
RXF 393 [6] = experiment: Concentration required to restrict cell growth to 50% on continuous exposure for 48 hr in Renal (RXF 393) cell line; assay type: functional; conditions: Homo sapiens, RXF 393, 48 h
SNB-75 [7] = experiment: Concentration required to decrease cell population by 50% on continuous exposure for 48 hr in CNS (SNB-75) cell line; assay type: functional; conditions: Homo sapiens, SNB-75, 48 h; read-out: LC50 (the source's name)
[8] = Ratio of cytotoxicity of cisR/normal cell line; assay type: functional
CH1 [9] = experiment: Tested for the cytotoxicity in CHIcisR ovarian cell line; assay type: functional, cell-based; conditions: Homo sapiens, CH1cisR
COLO 205 [10] = experiment: Concentration required to decrease cell population by 50% on continuous exposure for 48 hr in Colon (COLO 205) cell line C; assay type: functional; conditions: Homo sapiens, COLO 205, 48 h; read-out: LC50 (the source's name)
SNB-75 [11] = experiment: Concentration required to restrict cell growth to 50% on continuous exposure for 48 hr in CNS (SNB-75) cell line; assay type: functional; conditions: Homo sapiens, SNB-75, 48 h
MDA-MB-435 [12] = experiment: Concentration required to restrict cell growth to 50% on continuous exposure for 48 hr in Breast (MDA-MB-435) cell line; assay type: functional; conditions: Homo sapiens, MDA-MB-435, 48 h
SK-OV-3 = experiment: Tested for the cytotoxicity in SKOV-3 ovarian cell line; assay type: functional, cell-based; conditions: Homo sapiens
SK-MEL-5 [13] = experiment: Concentration required to decrease cell population by 50% on continuous exposure for 48 hr in Melanoma (SK-MEL-5) cell line; assay type: functional; conditions: Homo sapiens, SK-MEL-5, 48 h; read-out: LC50 (the source's name)
A2780 [14] = experiment: Tested for the cytotoxicity in A2780cisR ovarian cell line (cisR denotes resistance to cisplatin); assay type: functional, cell-based; conditions: Homo sapiens
NCI-H522 [15] = experiment: Concentration required to restrict cell growth to 50% on continuous exposure for 48 hr in Lung ([…]) cell line; assay type: functional; conditions: Homo sapiens, NCI-H522, 48 h
CH1 [16] = experiment: Tested for the cytotoxicity in CHI ovarian cell line; assay type: functional, cell-based; conditions: Homo sapiens
RXF 393 [17] = experiment: Concentration required to decrease cell population by 50% on continuous exposure for 48 hr in Renal (RXF 393) cell line; assay type: functional; conditions: Homo sapiens, RXF 393, 48 h; read-out: LC50 (the source's name)
[18] = Ratio of cytotoxicity of cisR/normal cell line; not active; assay type: functional

Row | Compound | CC50 (NCI-H522 [1]) | IC50 (A2780 [2]) | GI50 (COLO 205 [3]) | GI50 (SK-MEL-5 [4]) | CC50 (MDA-MB-435 [5]) | GI50 (RXF 393 [6]) | CC50 (SNB-75 [7]) | Resistance factor [8] | IC50 (CH1 [9]) | CC50 (COLO 205 [10]) | GI50 (SNB-75 [11]) | GI50 (MDA-MB-435 [12]) | IC50 (SK-OV-3) | CC50 (SK-MEL-5 [13]) | IC50 (A2780 [14]) | GI50 (NCI-H522 [15]) | IC50 (CH1 [16]) | CC50 (RXF 393 [17]) | Resistance factor [18]
1 | COc1cc2c(cc1OC)N(C(=O)OCCS(=O)(=O)c1ccccc1)[C@@H](O)[C@@H]1CCCN1C2=O | 1380 nM | 480 nM | 190 nM | 290 nM | 4330 nM | 240 nM | 9000 nM | 1 and 1.2 | 470 nM | 710 nM | 720 nM | 450 nM | 560 nM | 6780 nM | 490 nM | 110 nM | 400 nM | 2970 nM | 
2 | COc1cc2c(cc1OC)C(=O)N1CCC[C@H]1C=N2 |  | 64 nM |  |  |  |  |  | 2.4 and 1.3 | 110 nM |  |  |  | 1700 nM |  | 155 nM |  | 82 nM |  | 
3 | COc1cc2c(cc1OC)N(C(=O)OCCSc1ccccc1)[C@@H](O)[C@@H]1CCCN1C2=O |  | > 25000 nM |  |  |  |  |  |  | > 25000 nM |  |  |  | > 25000 nM |  | > 25000 nM |  | > 25000 nM |  | inactive
